Measured values from publication PMC3859608, “C-Terminus of the B-Chain of Relaxin-3 Is Important for Receptor Activity” (PLoS ONE, 2013).
Entries after “also recorded” stand apart in the source; their conditions may differ.

Tests used:
RXFP3 [1] = molecular target: T1, RXFP3 (Homo sapiens, UniProt Q9NSD7); conditions: in presence of orthosteric agonist; H3 amide or H3 acid; cited from earlier work
T1 construct: expressed in transfected cells
T1 sequence (Q9NSD7 1-469): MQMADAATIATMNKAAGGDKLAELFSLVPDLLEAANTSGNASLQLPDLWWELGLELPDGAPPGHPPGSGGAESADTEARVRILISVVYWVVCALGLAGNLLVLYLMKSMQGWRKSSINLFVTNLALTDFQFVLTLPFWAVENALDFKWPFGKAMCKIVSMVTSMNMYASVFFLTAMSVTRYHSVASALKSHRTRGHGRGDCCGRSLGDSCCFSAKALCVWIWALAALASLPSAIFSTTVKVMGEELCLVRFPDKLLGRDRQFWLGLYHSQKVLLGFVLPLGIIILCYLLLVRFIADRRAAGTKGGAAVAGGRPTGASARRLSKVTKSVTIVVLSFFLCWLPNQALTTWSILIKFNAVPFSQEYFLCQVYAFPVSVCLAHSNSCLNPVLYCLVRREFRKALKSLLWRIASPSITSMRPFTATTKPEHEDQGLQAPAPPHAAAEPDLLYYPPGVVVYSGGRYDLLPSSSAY
Source text: In this endeavour, a small molecule, 135PAM1, has recently been discovered by Alvarez-Jaimes et al. They reported that it was an allosteric modulator of RXFP3 that worked in the presence of an orthosteric agonist, H3 relaxin.

RXFP3 [2] = molecular target: T1, RXFP3; assay: cAMP activity (inhibition of forskolin-induced cAMP), CHO-K1 cells expressing RXFP3; assay type: cell-based; conditions: CHO-K1 RXFP3, pCRE-β-galactosidase reporter; forskolin 1 µM (method) / 5 µM (Fig. 2 legend); peptide 0.01 nM – 1 µM; mean ± SEM, n = 3, triplicate determinations; ** p<0.01 vs H3 acid (H3 amide, H3 A-acid); read-out: RXFP3 cAMP pEC50 (converted)
Method: (§1) The ability of the peptides to activate the receptors RXFP3/RXFP4 was assessed by measuring their influence on cAMP signalling in CHO-K1 cells stably expressing RXFP3 or RXFP4 transfected with a pCRE-β-galactosidase reporter gene construct as previously described. A single concentration of forskolin was used to stimulate cAMP signalling in cells expressing RXFP3 (1 µM) and RXFP4 (5 µM) and peptide induced inhibition of cAMP signalling was measured by adding increasing concentrations of the peptides (0.01 nM – 1 µM). The ability of the peptides to inhibit forskolin-induced cAMP response (pEC50) was measured and expressed as mean ± SEM from three independent experiments with triplicate determinations within each assay. The inhibition curves were fitted to a single-site sigmoidal dose-response curve with variable slope using Graphpad PRISM 5.
(§2) Figure 2 Receptor binding affinity (pKi) and cAMP activity (pEC-50) curves of H3 relaxin and its variants at RXFP3. A) Competition binding curves of H3 relaxin variants using a single concentration of Eu-I5/R3 (0.5 nM) in the presence of increasing concentrations of the H3 relaxin peptides. B) RXFP3 activation curves of H3 relaxin variants measured in a cAMP activity assay in the presence of 5 µM forskolin. The data were expressed as mean ± SEM. from at least three independent experiments.

RXFP4 [3] = molecular target: T2, RXFP4 (Homo sapiens, UniProt Q8TDU9); assay: Competition binding, Eu-labelled mouse INSL5, CHO-K1 cells expressing RXFP4; conditions: CHO-K1 cells stably expressing RXFP4; Eu-labelled mouse INSL5 2.5 nM; one site competition fit; mean ± SEM, n = 3, triplicate determinations; vs H3 acid: * H3 amide, ** p<0.01 H3 A-acid; read-out: RXFP4 Eu-INSL5 pKi (converted)
T2 construct: expressed in transfected cells
Method: (§3) The receptor binding affinity of the peptides was measured using CHO-K1 cells stably expressing RXFP3 and RXFP4. The competition binding assays were carried out as previously described, [27]. Briefly, a single concentration of Eu-labelled I5/R3 (0.5 nM) or Eu-labelled mouse INSL5 (2.5 nM) were used in presence of increasing concentration of peptides. The data were analyzed using GraphPad PRISM 5 (GraphPad Inc., San Diego, USA). The europium binding curves were fitted to a one site competition curve and the pKi values were expressed as the mean ± SEM of at least three independent experiments with triplicate determinations within each assay.
(§4) Figure 3 Receptor binding affinity (pKi) and cAMP activity (pEC-50) curves of H3 relaxin and its variants at RXFP4. A) Competition binding curves of H3 relaxin variants at RXFP4 using a single concentration of Eu-INSL5 (2.5 nM) in the presence of increasing concentrations of the H3 relaxin peptides. B) RXFP4 activation curves of H3 relaxin variants measured in a cAMP activity assays in the presence of 1 µM forskolin. The data were expressed as mean ± SEM from at least three independent experiments.

RXFP4 [4] = molecular target: T2, RXFP4; assay: cAMP activity (inhibition of forskolin-induced cAMP), CHO-K1 cells expressing RXFP4; assay type: cell-based; conditions: CHO-K1 RXFP4, pCRE-β-galactosidase reporter; forskolin 5 µM (method) / 1 µM (Fig. 3 legend); peptide 0.01 nM – 1 µM; mean ± SEM, n = 3, triplicate determinations; vs H3 acid: * H3 amide, ** p<0.01 H3 A-acid; read-out: RXFP4 cAMP pEC50 (converted)
Method: as §1, §4

RXFP3 [5] = molecular target: T1, RXFP3; assay: Competition binding, Eu-labelled I5/R3, CHO-K1 cells expressing RXFP3; conditions: CHO-K1 cells stably expressing RXFP3; Eu-I5/R3 0.5 nM; one site competition fit; mean ± SEM, n in parentheses in cell (3; H3 amide 4), triplicate determinations; ** p<0.01 vs H3 acid (H3 amide, H3 A-acid); read-out: RXFP3 Eu-H3/I5 pKi (converted)
Method: as §3, §2

RXFP3 [6] = molecular target: T1, RXFP3; conditions: cited from earlier work
Source text: (§5) It is a neuropeptide that is primarily expressed in the brain with the highest level detected in the nucleus incertus (NI) of the mouse, [8], rat, macaque and human. Neurons from the NI project to many regions of the brain where its distribution overlaps w ...

RXFP4 [7] = molecular target: T2, RXFP4; conditions: sentence cites ref 7; cited from earlier work
Source text: as §5

RXFP1 = conditions: cited from earlier work
Source text: as §5

RXFP4 [8] = molecular target: T2, RXFP4; conditions: both A and B chain C-termini amidated vs acid; cited from earlier work
Source text: Relaxin-3 is closely related to insulin-like peptide 5 (INSL5) as they both belong to the same branch in the phylogenetic tree of the relaxin family. In addition, the native receptors of relaxin-3 and INSL5, RXFP3 and RXFP4 respectively, belong to the same class of G-protein coupled receptors. On the basis of such close relationship between ligands (relaxin-3 and INSL5) and receptors (RXFP3 and RXFP4), it is most likely that relaxin-3 interacts with RXFP3 in a similar way to INSL5 interaction with RXFP4. Therefore, we tested all four H3 relaxin analogues on RXFP4. As expected, the H3 acid pept ... || The bioactivity of many polypeptide hormones often requires a form of post-translational modification of their precursors. An example of a widespread modification is C-terminal amidation which often leads to an increase in bioactivity of peptides [32]–[35]. In some cases, amidation of the C-terminus has been reported to have detrimental effect on the activity of peptides, [36]. […] In the case of relaxin family peptides, H2 relaxin and INSL3, both p ...

T2 sequence (Q8TDU9 whole entry, species assumed): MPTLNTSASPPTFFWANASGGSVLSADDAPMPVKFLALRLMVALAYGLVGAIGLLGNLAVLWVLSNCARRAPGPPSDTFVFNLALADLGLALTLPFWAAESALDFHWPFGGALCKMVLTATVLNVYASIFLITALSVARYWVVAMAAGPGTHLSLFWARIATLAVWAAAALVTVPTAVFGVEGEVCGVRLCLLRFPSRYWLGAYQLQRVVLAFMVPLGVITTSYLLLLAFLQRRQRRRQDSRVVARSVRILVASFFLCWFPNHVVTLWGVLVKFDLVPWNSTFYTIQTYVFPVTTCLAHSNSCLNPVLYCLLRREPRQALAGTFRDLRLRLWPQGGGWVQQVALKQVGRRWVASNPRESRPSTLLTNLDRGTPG

Q: For COc1ccc2[nH]cc(CCN(Cc3ccc(Cl)c(Cl)c3)C(=O)Nc3cc(C(F)(F)F)cc(C(F)(F)F)c3)c2c1 [135PAM1], which “allosteric activity of 135PAM1, dependence on H3 relaxin C-terminus” value (RXFP3 [1]) is on record?
A: active only when used with the non-native amidated form of H3 relaxin; also recorded: unable to act in the presence of the native form (acid) of H3 relaxin

Q: Which results are given for CC[C@H](C)[C@@H]1NC(=O)[C@H](Cc2ccccc2)NC(=O)[C@H](CCC(=O)O)NC(=O)[C@H](CCCNC(=N)N)NC(=O)CNC(=O)[C@@H](NC(=O)[C@H](CC(C)C)NC(=O)[C@H](CCCNC(=N)N)NC(=O)[C@@H](NC(=O)CNC(=O)[C@H](Cc2ccc(O)cc2)NC(=O)[C@@H]2CCCN2C(=O)[C@H](C)NC(=O)[C@H](C)NC(=O)[C@@H](N)CCCNC(=N)N)C(C)C)CSSC[C@@H]2NC(=O)[C@@H](NC(=O)[C@H](CO)NC(=O)[C@H](CO)NC(=O)[C@H](CO)NC(=O)[C@H](CC(C)C)NC(=O)CNC(=O)[C@H](C)NC(=O)[C@H](CC(C)C)NC(=O)[C@@H](NC(=O)[C@@H](N)CC(=O)O)C(C)C)CSSC[C@H](NC(=O)CNC(=O)[C@H](Cc3c[nH]c4ccccc34)NC(=O)[C@H](CCCCN)NC2=O)C(=O)N[C@@H](CO)C(=O)N[C@@H](CCCCN)C(=O)N[C@@H](CO)C(=O)N[C@@H](CCC(=O)O)C(=O)N[C@@H]([C@@H](C)CC)C(=O)N[C@@H](CO)C(=O)N[C@@H](CO)C(=O)N[C@@H](CC(C)C)C(=O)N[C@H](C(N)=O)CSSC[C@@H](C(=O)NCC(=O)NCC(=O)N[C@@H](CO)C(=O)N[C@@H](CCCNC(=N)N)C(=O)N[C@@H](Cc2c[nH]c3ccccc23)C(N)=O)NC(=O)[C@H]([C@@H](C)O)NC(=O)[C@H](Cc2ccccc2)NC(=O)[C@H]([C@@H](C)CC)NC(=O)[C@H](C(C)C)NC(=O)[C@H](C)NC(=O)[C@H](CCCNC(=N)N)NC1=O [H3 amide]?
A: EC50 (RXFP3 [2]): 7.24 nM; Ki (RXFP4 [3]): 39.8 nM; EC50 (RXFP4 [4]): 4.17 nM; Ki (RXFP3 [5]): 158 nM

Q: Which “binding and activation of RXFP3” value (RXFP3 [6]) does the source give for “H3 relaxin: neuropeptide with two chains (A and B) connected by three disulfide bonds” here?
A: binds and activates its cognate receptor

Q: And the “interaction with RXFP4” value (RXFP4 [7])?
A: with high affinity

Q: And the “interaction with RXFP1” value (RXFP1)?
A: with high affinity

Q: Which “C-terminus requirement for RXFP4 activity of INSL5” value (RXFP4 [8]) does the source give for “INSL5: insulin-like peptide 5; native ligand of RXFP4 (Insulin-like peptide INSL5 B … KESVRLCGLEYIRTVIYICASSRW; Insulin-like peptide INSL5 A … QDLQTLCCTDGCSMTDLSALC; UniProt Q9Y5Q6 23-46; Q9Y5Q6 115-135, looked up)” here?
A: need to be an acid for full RXFP4 activity; also recorded: C-termini were required to be free (acid) for high RXFP4 activity
